The values that follow come from publication PMC10179272, “SARS-CoV-2 Binding and Neutralization Properties of Peptides Derived from N-Terminus of Human ACE2” (International Journal of Molecular Sciences, 2023).

Assay [1] deals with PVP with Wuhan variant S-protein.
Assay [2] deals with live SARS-CoV-2 virus (variant B.1.1).
For assay [3], the system named is full-length SARS-CoV-2 S protein (Wuhan variant). The experiment in a line: Competition of P1st with FAM-labeled peptides for S protein binding (fluorescent immunoassay). Particulars: P1st at 25 μM; P1-FAM 3.25 to 25 μM; fluorescence intensity; result in words.
Assay [4] relates to full-length S protein of SARS-CoV-2 (Wuhan variant). The assay is classed as binding. Particulars: S protein 1 μg/mL coated; peptide incubated 2 h at RT; fluorescence 483 nm excitation/530 nm emission; result in words.
Assay [5] shares this test system. The experiment in a line: Immunosorbent assay of P2 binding to immobilized S protein, detected with anti-P1 antibodies. The note with it: P2 incubated 2 h at 37 °C; anti-P1 antibody 1 μg/mL, anti-rabbit IgG-HRP, TMB, A450-620; result in words.

By IC50 is commonly meant the concentration needed to halve the response being measured. Read a high IC50 as lower potency.

Where a SMILES comes first, the peptide text is derived from it. Bridges are numbered along the chain shown (N, C = ends). [ ]: non-standard residue; d: D form. S5 = C=CCCC[C@](C)(N)C(=O)O

Take `CC[C@H](C)[C@H](NC(=O)[C@@H](NC(=O)[C@H](CO)NC(C)=O)[C@@H](C)O)C(=O)N[C@@H](CCC(=O)O)C(=O)N[C@@H](CCC(=O)O)C(=O)N[C@@H](CCC(N)=O)C(=O)N[C@@H](C)C(=O)N[C@@H](CCCCN)C(=O)N[C@H](C(=O)N[C@@]1(C)CCCC=CCCC[C@@](C)(C(=O)N[C@@H](CC(N)=O)C(=O)N[C@@H](Cc2c[nH]cn2)C(=O)N[C@@H](CCC(=O)O)C(=O)N[C@@H](C)C(=O)N[C@@H](CCC(=O)O)C(=O)N[C@@H](CC(=O)O)C(=O)N[C@@H](CC(C)C)C(=O)N[C@@H](Cc2ccccc2)C(=O)N[C@@H](Cc2ccc(O)cc2)C(=O)N[C@@H](CCC(N)=O)C(=O)N[C@@]2(C)CCCC=CCCC[C@@](C)(C(=O)N[C@@H](Cc3c[nH]c4ccccc34)C(=O)N[C@@H](CC(N)=O)C(=O)N[C@@H](Cc3ccc(O)cc3)C(N)=O)NC(=O)[C@H](C)NC(=O)[C@H](CC(C)C)NC(=O)[C@H](CO)NC2=O)NC(=O)[C@H](CCCCN)NC(=O)[C@H](CC(=O)O)NC(=O)[C@H](CC(C)C)NC1=O)[C@@H](C)O` [P1st] (Ac-STIEEQAKT[S5]LDK[S5]NHEAEDLFYQ[S5]SLA[S5]WNY-NH2; staple 10-14, 25-29): the IC50 was determined as 25.4 µM in assay [1] (48 h); 18.3 µM in the assay on BA.1-like (Omicron) PVP (48 h); 7.04 µM in assay [2] (live virus (variant B.1.1, 4 h)). For the same molecule, the “Competition with other peptides (P1-FAM, SAP) for binding to S protein” value in assay [3] is on record as “able to efficiently compete”.
“TFLDKFNHEAEDLFYQ [SAP1, short ACE2 peptide, 16 aa, described previously [23]]”: the “Binding of FAM-labeled peptide to immobilized full-length S protein” value in assay [4] is on record as “reasonable binding”.
Still for that read-out and setting: as for “EDLFYQ [SAP6, short ACE2 peptide, 6 aa, described previously [23]]”, the entry is “reasonable binding”; as for “STIEEQAKTFLDAFNHAAAALFAQSSLASWNY [P1m, control P1 with alanine substitutions of key amino acids]”, “failed to bind”; as for “EDLFYQSSL [SAP2, short ACE2 peptide, 9 aa, described previously [23]]”, “reasonable binding”.
Consider GKGDFRIL [SAP4, reference compound], for which, in assay [1] (200 μM peptide, HEK/ACE2 cells, judged non-specific, result in words), the “Inhibitory activity on PVP (Wuhan S protein) entry at high concentration” value is “Marked inhibitory activity”. Moreover, in assay [2] (300 μM peptide, […], judged non-specific, result in words), the “Inhibitory activity on live SARS-CoV-2 infection of Vero cells at high concentration” value is given as “Inhibitory activity”. For the same molecule, the “Binding of FAM-labeled peptide to immobilized full-length S protein” value in assay [4] was “failed to bind”.
Regarding “MSTIEEQAKTFLDKFNHEAEDLFYQSSLASWNYNTNITEENVQNMNNAGDKWSAFLKEQSTLAQMYPLQEIQNLTVKLQLQALQ [P2, recombinant 80 aa polypeptide comprising Helices I and II of ACE2, expressed in E. coli]”, the “Inhibition of PVP (Wuhan S protein) entry into ACE2-overexpressing cells” value in assay [1] (peptide 0 to 56 μM (Figure 3), […], flow cytometry, result in words) was “could not inhibit entry”. For the same molecule, in the assay with BA.1-like (Omicron) PVP ([…], flow cytometry, result in words), the “Inhibition of PVP (BA.1-like S protein) entry into ACE2-overexpressing cells” value is “failed to inhibit PVP entry”. Besides, in assay [5], the “P2 binding to immobilized full-length S protein” value was “demonstrated their binding ability”.
